Reference: PMC9469500, “Targeting an Initiator Allergen Provides Durable and Expansive Protection against House Dust Mite Allergy” (ACS Pharmacology & Translational Science, 2022)
Converted amounts (≈) assume the structure as drawn.

Experiments:
thermodynamic solubility = assay type: physicochemical; conditions: thermodynamic from solid
[1] = test system: rat airway epithelial cell line L2; test: Cellular stability in L2 cells; assay type: in vitro ADME; conditions: 100 nM compound
Description: (§1) Cellular Stability of Compounds
(§2) The cellular stability of compounds in vitro was tested using rat airway epithelial cell line L2 and rat alveolar macrophage line NR8383 (ATCC©CRL-2192™). Assays were performed in replicate and the data expressed as mean ± s.e. mean. L2 cells were cultured to confluence in T25 flasks or 24 -well plates using Kaighn’s modification of Ham’s F12 medium (F12K). Cells were prepared for assay by washing 3 times with serum-free F12K. NR8383 Airway macrophages were grown in suspension culture in F12K, collected by centrifugation, washed in serum-free medium and aliquoted into test plates (1.4 x 10^6 cells/well). Both cell lines were treated with ADI compounds (100 nM) in serum -free F12K in a 5% CO 2 environment at 37 °C. Samples were removed for quantitative analysis by LC -MS-MS using appropriate multiple reaction monitoring transitions for each analyte. […]
(§3) n-Octanol (0.7 mL), pre -saturated with 10 mM PBS, pH7.4, was added to test compound (~1 mg) in a 2 mL HPLC vial followed by PBS (0. 7 mL), which had been pre -saturated with n -octanol. The mixture was shaken for 90 min before centrifugation for 10 min at 4,000 rpm. The upper organic layer (0.2 mL) and the aqueous layer (0.5 mL) were removed for analysis by LC-MS. Peak identity was confirmed by mass spectrometry and concentration assessed spectrophotometrically using a diode array detector. The log

[2] = test system: rat alveolar macrophage line NR8383; test: Cellular stability in macrophages; assay type: in vitro ADME; conditions: 100 nM compound
Description: as §1, §2, §3

plasma stability (rat) = assay type: in vitro ADME
[3] = hepatocyte stability (rat); assay type: in vitro ADME; conditions: hepatocytes
[4] = hepatocyte stability (human); assay type: in vitro ADME; conditions: hepatocytes
[5] = test system: rats sensitized to the HDM allergen extract; test: HDM extract challenge in rats sensitized to the HDM allergen extract (BAL cells and mediators); assay type: in vivo, BN rats
Text: Control animals received saline vehicle treatment.

unsensitized BN rats = test: HDM extract challenge in unsensitized (naive) BN rats, duration of protection; assay type: in vivo
sensitized Balb/c mice = test: HDM extract challenge in sensitized Balb/c mice (BAL flow cytometry); assay type: in vivo; conditions: HDM 10; i.t. 2 h prior to challenge; BAL 48 h
Description: Mice (female Balb/c 20 ± 2 g, Charles River) were isolator maintained in ventilated cages (Allentown IVC Racks, 36 Mini Isolator System, USA) that had been prepared for use by prior autoclaving. Environmental controls were 22–24 °C/60–80% relative humidity on a 12 h light/dark cycle. Animals were allowed ad libitum access to reverse osmosis-purified water and food (MF-18 laboratory rodent diet). Where prestudy serum samples were mandated, these were taken from the retro-orbital sinus on acclimatization in the isolator facility. Animals were randomly assigned to groups and sensitized to the HDM extract or treated with the vehicle on days 0, 7, and 14. […] Animals were anesthetized with propofol 48 h later (AstraZeneca, 10 mg/mL, 50 μL/mouse, i.v.), and terminal blood samples were taken from the retro-orbital sinus. BAL (3 × 0.5 mL aliquots of PBS) was performed, and the returns were combined for enumeration.
Flow cytometry (FACS) of BAL fluid was performed with a BD FACSAria instrument (Becton Dickinson Biosciences, USA) and the FACSDiva software. Analyses were performed by operators who were unaware of the sample identity. […]

[6] = read-out: hepatocyte intrinsic clearance
[7] = HDM 1, dosed 2 or 4 h before challenge, BAL 48 h
[8] = HDM 10, single i.t. aerosol dose 2 h before (15 μg/kg compound 1, 46 μg/kg compound 2), BAL 48 h
[9] = stronger challenge HDM 10, 15 μg/kg i.t. aerosol 2 h prior
[10] = HDM-naive rats, 15 μg/kg i.t. aerosol 2 h prior to HDM 10, BAL 48 h
[11] = single i.t. dose (15 μg/kg compound 1, 46 μg/kg compound 2), BAL 48 h

Description for Pharmacokinetics in rats: Soluble formulations were developed and verified by high performance liquid chromatography (HPLC)
1 mL/kg) and p.o. (5 mg/kg, 5 mL/kg) in non-fasted Sprague-Dawley rats (male, 200-300 g, 10-16 weeks
of age, groups of three animals per route per compound). Timed blood samples were taken after dosing
and plasma prepared for LC-MS-MS quantification of the test substance after inclusion of an internal
standard. A non -compartmental model in WinNonlin software was used to calculate pharmacokinetic

## CC(C)[C@H](NC(=O)[C@H](C)NC(=O)[C@@H](NC(=O)c1ccccc1)C(C)(C)C)C(=O)C(=O)NCc1ccccc1 [Compound 1, N-{(S)-1-[(S)-1-((S)-1-benzylaminooxalyl-2-methyl-propylcarbamoyl)-ethylcarbamoyl]-2,2-dimethyl-propyl}-benzamide]
Thermodynamic solubility
  solubility thermodynamic: 84 µM (≈ 43.9 µg/mL)
[1]
  cell stability: 100; 100
[2]
  cell stability: 100; 100
Plasma stability (rat)
  remaining at 2 h: 100%
[3]
  half-life: 118 min
[3]; [6]
  CLint scaled: 28.2 mL/min/kg
[4]
  half-life: 181 min
[4]; [6]
  CLint scaled: 11.7 mL/min/kg
[5]; HDM 1 (1 μg Der p 1), dosed i.t. aerosol 2 or 4 h before challenge, BAL 48 h
  BAL eosinophil responses: suppressed
[5]; [7]
  BAL neutrophil recruitment: No effect
  CCL-2 in BAL fluid: suppressed
  CCL-20 in BAL fluid: suppressed
  IL-13 in BAL fluid: suppressed
  IL-33 in BAL fluid: suppressed
[5]; HDM 1, dosed 2 h before challenge, BAL 48 h
  TSLP in BAL fluid: suppressed
[5]; HDM 1, dosed 4 h before challenge, BAL 48 h, 'except' = not suppressed
  TSLP in BAL fluid: except for TSLP
[5]; HDM 10 (10 μg Der p 1) i.t. aerosol, single i.t. aerosol dose 2 h before (15 μg/kg compound 1, 46 μg/kg compound 2), BAL 48 h
  changes in BAL cells after HDM challenge: attenuated
[5]; [8]
  BAL eosinophils after HDM challenge: eosinophil suppression
  BAL monocytes/macrophages after HDM challenge: No effects
  BAL neutrophil responses after HDM challenge: not significant
[5]; [9]
  IL-6 responses in BAL: unaffected
  IL-13 in BAL: inhibitory effects
  IL-33 in BAL: inhibitory effects
  TSLP in BAL: inhibitory effects
Unsensitized BN rats; BAL performed 24 h after HDM extract challenge, dosed 2 h prior
  neutrophil response: clear inhibition
Unsensitized BN rats; [10]
  BAL monocyte/macrophage numbers: suppressed
  BAL neutrophil numbers: suppressed
  cellularity of BAL fluid: suppressed
Unsensitized BN rats; Rattus norvegicus, Eosinophil, inhaled or nasal, 48 h, read-out: inhibition of eosinophil response at peak
  inhibition at 0.015 mg/kg: > 60%
Unsensitized BN rats; estimated, Figure 5D–F, in words
  onset: temporal separation between drug dosing and HDM challenge required to achieve 50% inhibition of the eosinophil response: faster in onset
Unsensitized BN rats; focused library, durability of inhibition studies
  performance in vivo (maximum inhibition of the eosinophil response, Figure 5A): performed well
Unsensitized BN rats; intervening pretreatment intervals, BAL 48 h
  effects on BAL neutrophils: insignificant
Unsensitized BN rats; pretreatment 60 min, 15 μg/kg i.t., BAL 48 h
  inhibition of BAL monocytes/macrophages (significance): significant
Unsensitized BN rats; short or long pretreatment intervals, BAL 48 h
  effects on BAL neutrophils: inhibitory
Unsensitized BN rats; shorter pretreatment times, BAL 48 h
  effect on BAL monocytes/macrophages: modest inhibition
Unsensitized BN rats; [11]
  effect on eosinophils with 6–8 h separation of dose and challenge: substantial inhibition
  time of administration before challenge giving peak effects on eosinophils: 2 h
Sensitized Balb/c mice
  doses required for good activity against the HDM extract: > 10 µg/kg
Pharmacokinetics in rats; male, Sprague-Dawley, rat, plasma, po, 5 mg/kg
  bioavailability: 39%
Pharmacokinetics in rats; male, Sprague-Dawley, rat, plasma, po, 5 mg/kg, rat p.o., fasted
  half-life: 126 min
Pharmacokinetics in rats; male, Sprague-Dawley, rat, plasma, po, 5 mg/kg, rat p.o., fed
  half-life: 174 min
Pharmacokinetics in rats; rat p.o.
  volume of distribution: 0.9 L/kg
Pharmacokinetics in rats; rat p.o., fasted
  clearance: 27 (fasted) mL/min/kg
